Measured values as given in publication PMC3514216, “SRC Homology 2 Domain Binding Sites in Insulin, IGF-1 and FGF receptor mediated signaling networks reveal an extensive potential interactome” (Cell Communication and Signaling : CCS, 2012).
Positions count from the first letter of the chain named. Residues, ends and D or L forms follow the SMILES beside them.

Columns and labels:
Grb7 SH2 domain [1] = assay: SPOT peptide array; format: binding; conditions: spot intensity as factor of array mean; GST-SH2 0.25 μM
Summary of the method: (§1)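 Semi-quantitative binding scored against the membrane average: positive above 3× mean, negative below mean. Probe was a GST–SH2 fusion on SPOT arrays of pTyr 11-mers, detected with anti-GST antibody plus near-infrared secondary.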

Src SH2 domain [2] = biological target: T1, Src SH2 domain (Homo sapiens, UniProt P12931); assay: SPOT peptide array; format: binding; conditions: spot intensity as factor of array mean; GST-SH2 0.25 μM
Summary of the method: as §1

Grb2 SH2 domain = Grb2 SH2 domain (Homo sapiens, UniProt P62993); assay: SPOT peptide array; format: binding; conditions: spot intensity as factor of array mean; GST-SH2 0.25 μM
Summary of the method: as §1

Abl2 SH2 domain = biological target: T2, Abl2 SH2 domain (Homo sapiens, UniProt P42684); assay: SPOT peptide array; format: binding; conditions: spot intensity as factor of array mean; GST-SH2 0.25 μM
T2 sequence (P42684 173-263 limits assumed): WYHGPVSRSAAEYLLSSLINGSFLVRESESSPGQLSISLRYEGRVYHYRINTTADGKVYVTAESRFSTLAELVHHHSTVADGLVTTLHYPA
Summary of the method: as §1

Src SH2 domain [3] = biological target: T1, Src SH2 domain; parameters: method as in earlier work; conditions: SH2 protein microarray; N.B. = non binding; read-out: Protein Microarray (Macbeath) – KD; cited from earlier work
Grb7 SH2 domain [4] = biological target: Grb7 SH2 domain; parameters: method as in earlier work; conditions: SH2 protein microarray; N.B. = non binding; read-out: Protein Microarray (Macbeath) – KD; cited from earlier work
Gads SH2 domain [5] = assay: SPOT peptide array; format: binding; conditions: spot intensity as factor of array mean; GST-SH2 0.25 μM
Summary of the method: as §1

Crk SH2 domain [6] = biological target: T3, Crk SH2 domain (Homo sapiens, UniProt P46108); assay: SPOT peptide array; format: binding; conditions: spot intensity as factor of array mean; GST-SH2 0.25 μM
Summary of the method: as §1

Gads SH2 domain [7] = biological target: Gads SH2 domain; parameters: method as in earlier work; conditions: SH2 protein microarray; N.B. = non binding; read-out: Protein Microarray (Macbeath) – KD; cited from earlier work
Crk SH2 domain [8] = biological target: T3, Crk SH2 domain; parameters: method as in earlier work; conditions: N.B. = non binding; cited from earlier work
Vav1 SH2 domain = Vav1 SH2 domain (Homo sapiens, UniProt P15498); parameters: method as in earlier work; conditions: N.B. = non binding; cited from earlier work
Plcg2_N SH2 domain = Plcg2_N SH2 domain (Homo sapiens, UniProt P16885); parameters: method as in earlier work; conditions: N.B. = non binding; cited from earlier work
Nck1 SH2 domain = Nck1 SH2 domain (Homo sapiens, UniProt P16333); parameters: method as in earlier work; conditions: N.B. = non binding; cited from earlier work
CrkL SH2 domain [9] = biological target: T4, CrkL SH2 domain (Homo sapiens, UniProt P46109); parameters: method as in earlier work; conditions: N.B. = non binding; cited from earlier work
Yes SH2 domain [10] = biological target: Yes SH2 domain; parameters: method as in earlier work; conditions: SH2 protein microarray; N.B. = non binding; read-out: Protein Microarray (Macbeath) – KD; cited from earlier work
CrkL SH2 domain [11] = biological target: T4, CrkL SH2 domain; assay: SPOT peptide array; format: binding; conditions: spot intensity as factor of array mean; GST-SH2 0.25 μM
Summary of the method: as §1

Yes SH2 domain [12] = assay: SPOT peptide array; format: binding; conditions: spot intensity as factor of array mean; GST-SH2 0.25 μM
Summary of the method: as §1

Abl1 SH2 domain = biological target: T5, Abl1 SH2 domain (Homo sapiens, UniProt P00519); assay: SPOT peptide array; format: binding; conditions: spot intensity as factor of array mean; GST-SH2 0.25 μM
T5 sequence (P00519 127-217 limits assumed): T2 sequence (P42684 173-263 limits assumed) with S9N, L18G, L35R, T53A, A54S, V58L, T61S, A62S, S67N, V84I
Summary of the method: as §1

Rasa1_N SH2 domain = Rasa1_N SH2 domain (Homo sapiens, UniProt P20936); assay: SPOT peptide array; format: binding; conditions: spot intensity as factor of array mean; GST-SH2 0.25 μM
Itk SH2 domain = Itk SH2 domain (Homo sapiens, UniProt Q08881); assay: SPOT peptide array; format: binding; conditions: spot intensity as factor of array mean; GST-SH2 0.25 μM
Chain of Itk SH2 domain (Q08881 239-338 limits assumed): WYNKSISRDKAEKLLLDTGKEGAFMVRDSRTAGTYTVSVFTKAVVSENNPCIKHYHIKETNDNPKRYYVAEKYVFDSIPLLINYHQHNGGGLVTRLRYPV

T3 sequence (P46108 13-118 limits assumed): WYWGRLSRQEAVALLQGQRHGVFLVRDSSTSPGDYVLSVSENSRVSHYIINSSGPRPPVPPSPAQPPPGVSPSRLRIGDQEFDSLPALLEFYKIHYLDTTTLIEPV
T4 sequence (P46109 14-102 limits assumed): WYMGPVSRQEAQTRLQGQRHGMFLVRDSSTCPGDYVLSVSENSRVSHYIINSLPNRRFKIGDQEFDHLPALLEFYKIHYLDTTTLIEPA
Chain of Grb2 SH2 domain (P62993 60-152 limits assumed): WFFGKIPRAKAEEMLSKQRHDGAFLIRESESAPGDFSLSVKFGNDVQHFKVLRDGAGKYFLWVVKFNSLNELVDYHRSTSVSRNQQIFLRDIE
Chain of Vav1 SH2 domain (P15498 671-765 limits assumed): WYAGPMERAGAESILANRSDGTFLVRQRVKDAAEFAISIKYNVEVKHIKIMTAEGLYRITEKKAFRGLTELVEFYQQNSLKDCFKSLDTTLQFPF
Chain of Plcg2_N SH2 domain (P16885 532-635 limits assumed): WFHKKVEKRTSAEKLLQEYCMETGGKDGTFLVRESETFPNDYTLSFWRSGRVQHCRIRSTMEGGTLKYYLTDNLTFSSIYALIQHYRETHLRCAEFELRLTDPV
Chain of Rasa1_N SH2 domain (P20936 181-272 limits assumed): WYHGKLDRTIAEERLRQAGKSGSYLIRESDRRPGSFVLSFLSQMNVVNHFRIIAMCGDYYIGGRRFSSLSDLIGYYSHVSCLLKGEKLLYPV

## EIFTLGGSPpYPGVPVEED
Grb7 SH2 domain [1]
  Peptide array intensity (X mean): <2x X Mean
Src SH2 domain [2]
  Peptide array intensity (X mean): <2x X Mean
Grb2 SH2 domain
  Peptide array intensity (X mean): <2x X Mean
Abl2 SH2 domain
  Peptide array intensity (X mean): <2x X Mean
Src SH2 domain [3]
  Kd: 1790 nM
Grb7 SH2 domain [4]
  Kd: 650 nM

## ARDIHHIDYpYKKTTNGRD
Gads SH2 domain [5]
  Peptide array intensity (X mean): <2x X Mean
Crk SH2 domain [6]
  Peptide array intensity (X mean): <2x X Mean
Gads SH2 domain [7]
  Kd: 1010 nM

## CSCC[C@H](NC(=O)[C@@H]1CCCN1C(=O)[C@@H](N)[C@@H](C)O)C(=O)N[C@@H](CC(C)C)C(=O)N[C@@H](C)C(=O)NCC(=O)N[C@H](C(=O)N[C@@H](CO)C(=O)N[C@@H](CCC(=O)O)C(=O)N[C@@H](Cc1ccc(OP(=O)(O)O)cc1)C(=O)N[C@@H](CCC(=O)O)C(=O)N[C@@H](CC(C)C)C(=O)N1CCC[C@H]1C(=O)N[C@@H](CCC(=O)O)C(=O)N[C@@H](CC(=O)O)C(=O)N1CCC[C@H]1C(=O)N[C@@H](CCCNC(=N)N)C(=O)N[C@@H](CC(=O)O)C(=O)O)C(C)C (HELM PEPTIDE1{T.P.M.L.A.G.V.S.E.[O=C([C@H](Cc1ccc(OP(=O)(O)O)cc1)N[*:1])[*:2]].E.L.P.E.D.P.R.D}$$$$V2.0)
Crk SH2 domain [8]
  Protein Microarray (Macbeath) – KD: N.B.
Vav1 SH2 domain
  Protein Microarray (Macbeath) – KD: N.B.
Plcg2_N SH2 domain
  Protein Microarray (Macbeath) – KD: N.B.
Nck1 SH2 domain
  Protein Microarray (Macbeath) – KD: N.B.
CrkL SH2 domain [9]
  Protein Microarray (Macbeath) – KD: N.B.

## QARRPPGLEpYCYNPSHND* [FGFR1 Y583 phosphopeptide; Cys replaced with Ala or Ser on peptide arrays]
Yes SH2 domain [10]
  Kd: 1550 nM
CrkL SH2 domain [11]
  Peptide array intensity (X mean): <2x X Mean
Grb7 SH2 domain [1]
  Peptide array intensity (X mean): >3x X Mean
Yes SH2 domain [12]
  Peptide array intensity (X mean): <2x X Mean
Grb2 SH2 domain
  Peptide array intensity (X mean): <2x X Mean
Abl1 SH2 domain
  Peptide array intensity (X mean): >3x X Mean
Abl2 SH2 domain
  Peptide array intensity (X mean): <2x X Mean
Rasa1_N SH2 domain
  Peptide array intensity (X mean): <2x X Mean
Itk SH2 domain
  Peptide array intensity (X mean): <2x X Mean
Grb7 SH2 domain [4]
  Kd: 1000 nM
